{
  "source": "the SangsterLogP compilation",
  "data": [
    {"assay": "method code SF-AS, from PMID: 4083029", "conditions": "pH 5.0", "values": [
      {"smiles": "O=c1c2c(nc3n1CCCC3)CCCCC2", "logD": 1.6},
      {"smiles": "Cc1ccn2c(=O)c3c(nc2c1)CCCCC3", "logD": 1.86},
      {"smiles": "O=c1c2c(nc3n1CCCCCC3)CCCC2", "logD": 2.13},
      {"smiles": "Cc1cccc2nc3c(c(=O)n12)CCCCC3", "logD": 1.91},
      {"smiles": "O=c1c2c(nc3ccccn13)CCCCCC2", "logD": 2.29},
      {"smiles": "Cc1ccc2nc3c(c(=O)n2c1)CCCCC3", "logD": 2.07},
      {"smiles": "O=c1c2c(nc3n1CCCCCC3)CCCCC2", "logD": 2.43},
      {"smiles": "O=c1c2c(nc3n1CCCCCC3)CCC2", "logD": 1.61},
      {"smiles": "O=c1c2c(nc3ccccn13)CCCCC2", "logD": 1.63},
      {"smiles": "O=c1c2c(nc3n1CCCCC3)CCCCCC2", "logD": 2.41},
      {"smiles": "Cc1ccc2c(=O)n3c(nc2c1)CCCCC3", "logD": 2.44},
      {"smiles": "O=c1c2ccccc2nc2n1CCCC2", "logD": 1.49},
      {"smiles": "Cc1cccc2nc3n(c(=O)c12)CCC3", "logD": 1.59}
    ]}
  ]
}
